Measured values: US11717508B2, “Compounds, compositions, and methods for inhibiting bacterial growth” (priority 2016, dated 2023)
Values joined by “and” are separate entries in the source; they are usually repeats but may differ in a detail not shown here. Equal entries are not always repeated. Where two headings read alike, the source gives them in different places.

System: DosRST regulon
Assay type: cell-based
Conditions: for Counts per million (CPM) WT_HC103A: replicates 1, 2

SMILES: O=C(Nc1cccc(O)c1)c1cccc(NC(=O)c2cccs2)c1 [HC103A, N-[3-[(3 hydroxyphenyl)carbamoyl]phenyl]thiophene-2-carboxamide]
- genes downregulated by compound (total) (40 μM, 6 days, >2-fold, p<0.05): 90 genes
- downregulation of tgs1 gene (transcriptional profiling) (CDC1551, 40 μM, 6 days): ~180 fold
- WT DMSO/WT HC103A fold change (gene MT36S5 Rv3551): 0.4042
- log2 Fold change (gene MT36S5 Rv3551): −1.307
- WT DMSO/WT HC103A fold change (gene MT0086 Rv0079): 0.2341
- log2 Fold change (gene MT0086 Rv0079): −2.095
- WT DMSO/WT HC103A fold change (gene MT0087 Rv0080): 0.2783
- log2 Fold change (gene MT0087 Rv0080): −1.845
- WT DMSO/WT HC103A fold change (gene MT0207 Rv0197): 3.65
- log2 Fold change (gene MT0207 Rv0197): 1.868
- WT DMSO/WT HC103A fold change (gene MT0337 Rv0322 udgA): 2.459
- log2 Fold change (gene MT0337 Rv0322 udgA): 1.298
- WT DMSO/WT HC103A fold change (gene MT0468 Rv0452): 2.465
- log2 Fold change (gene MT0468 Rv0452): 1.301
- WT DMSO/WT HC103A fold change (gene MT0491 Rv0474): 2.323
- log2 Fold change (gene MT0491 Rv0474): 1.216
- WT DMSO/WT HC103A fold change (gene MT0585 Rv0559c): 5.989
- log2 Fold change (gene MT0585 Rv0559c): 2.582
- WT DMSO/WT HC103A fold change (gene MT0586 Rv0560c): 282
- log2 Fold change (gene MT0586 Rv0560c): 8.139
- WT DMSO/WT HC103A fold change (gene MT0595 Rv0569): 0.1236
- log2 Fold change (gene MT0595 Rv0569): −3.016
- WT DMSO/WT HC103A fold change (gene MT0596 Rv0570 nrdZ): 0.02807
- log2 Fold change (gene MT0596 Rv0570 nrdZ): −5.155
- Counts per million (CPM) WT_HC103A (gene MT0596 Rv0570 nrdZ): 73.81 CPM and 59.09 CPM
- WT DMSO/WT HC103A fold change (gene MT0597 Rv0571c): 0.1705
- log2 Fold change (gene MT0597 Rv0571c): −2.552
- Counts per million (CPM) WT_HC103A (gene MT0597 Rv0571c): 71.16 CPM and 45.13 CPM
- WT DMSO/WT HC103A fold change (gene MT0598): 0.1036
- log2 Fold change (gene MT0598): −3.27
- Counts per million (CPM) WT_HC103A (gene MT0598): 38.26 CPM and 19.74 CPM
- WT DMSO/WT HC103A fold change (gene MT0599 Rv0572c): 0.05128
- log2 Fold change (gene MT0599 Rv0572c): −4.028
- Counts per million (CPM) WT_HC103A (gene MT0599 Rv0572c): 49.68 CPM and 34.61 CPM
- WT DMSO/WT HC103A fold change (gene MT0600): 0.02301
- log2 Fold change (gene MT0600): −5.442
- Counts per million (CPM) WT_HC103A (gene MT0600): 44.59 CPM and 9.221 CPM
- WT DMSO/WT HC103A fold change (gene MT0601 Rv0573c): 0.1124
- log2 Fold change (gene MT0601 Rv0573c): −3.153
- Counts per million (CPM) WT_HC103A (gene MT0601 Rv0573c): 11.49 CPM and 9.546 CPM
- WT DMSO/WT HC103A fold change (gene MT0602 Rv0574c): 0.05787
- log2 Fold change (gene MT0602 Rv0574c): −4.111
- Counts per million (CPM) WT_HC103A (gene MT0602 Rv0574c): 26.39 CPM and 16.69 CPM
- WT DMSO/WT HC103A fold change (gene MT0808 Rv0784): 4.409
- log2 Fold change (gene MT0808 Rv0784): 2.141
- WT DMSO/WT HC103A fold change (gene MT0846 Rv0824c desA1): 0.3753
- log2 Fold change (gene MT0846 Rv0824c desA1): −1.414
- Counts per million (CPM) WT_HC103A (gene MT0846 Rv0824c desA1): 2,581.69 CPM and 3,416.39 CPM
- WT DMSO/WT HC103A fold change (gene MT0910 Rv0887c): 2.543
- log2 Fold change (gene MT0910 Rv0887c): 1.346
- WT DMSO/WT HC103A fold change (gene MT1095 Rv1065): 0.3758
- log2 Fold change (gene MT1095 Rv1065): −1.412
- Counts per million (CPM) WT_HC103A (gene MT1095 Rv1065): 198.5 CPM and 168.6 CPM
- WT DMSO/WT HC103A fold change (gene MT1126 Rv1094 desA2): 0.3586
- log2 Fold change (gene MT1126 Rv1094 desA2): −1.44
- Counts per million (CPM) WT_HC103A (gene MT1126 Rv1094 desA2): 2,249.03 CPM and 2,771.69 CPM
- WT DMSO/WT HC103A fold change (gene MT1294 Rv1255c): 3.371
- log2 Fold change (gene MT1294 Rv1255c): 1.753
- WT DMSO/WT HC103A fold change (gene MT1322 Rv1284): 0.3386
- log2 Fold change (gene MT1322 Rv1284): −1.562
- Counts per million (CPM) WT_HC103A (gene MT1322 Rv1284): 223.7 CPM and 205.3 CPM
- WT DMSO/WT HC103A fold change (gene MT1608 Rv1557 mmpL6): 8.81
- log2 Fold change (gene MT1608 Rv1557 mmpL6): 3.139
- WT DMSO/WT HC103A fold change (gene MT1692 Rv1654 argB): 0.2745
- log2 Fold change (gene MT1692 Rv1654 argB): −1.865
- Counts per million (CPM) WT_HC103A (gene MT1692 Rv1654 argB): 176.3 CPM and 60.13 CPM
- WT DMSO/WT HC103A fold change (gene MT1693 Rv1655 argD): 0.2592
- log2 Fold change (gene MT1693 Rv1655 argD): −1.948
- Counts per million (CPM) WT_HC103A (gene MT1693 Rv1655 argD): 135.1 CPM and 51.69 CPM
- WT DMSO/WT HC103A fold change (gene MT1694 Rv1656 argF): 0.214
- log2 Fold change (gene MT1694 Rv1656 argF): −2.224
- Counts per million (CPM) WT_HC103A (gene MT1694 Rv1656 argF): 115.2 CPM and 42.01 CPM
- WT DMSO/WT HC103A fold change (gene MT1774 Rv1733c): 0.01521
- log2 Fold change (gene MT1774 Rv1733c): −6.039
- Counts per million (CPM) WT_HC103A (gene MT1774 Rv1733c): 40.51 CPM and 8.961 CPM
- WT DMSO/WT HC103A fold change (gene MT1775): 0.1012
- log2 Fold change (gene MT1775): −3.305
- Counts per million (CPM) WT_HC103A (gene MT1775): 101.9 CPM and 24.16 CPM
- WT DMSO/WT HC103A fold change (gene MT1776 Rv1735c): 0.2125
- log2 Fold change (gene MT1776 Rv1735c): −2.234
- Counts per million (CPM) WT_HC103A (gene MT1776 Rv1735c): 4.991 CPM and 2.922 CPM
- WT DMSO/WT HC103A fold change (gene MT1777): 0.02322
- log2 Fold change (gene MT1777): −5.428
- Counts per million (CPM) WT_HC103A (gene MT1777): 5.142 CPM and 2.013 CPM
- WT DMSO/WT HC103A fold change (gene MT1778 Rv1736c narX): 0.0157
- log2 Fold change (gene MT1778 Rv1736c narX): −5.993
- Counts per million (CPM) WT_HC103A (gene MT1778 Rv1736c narX): 122.3 CPM and 26.17 CPM
- WT DMSO/WT HC103A fold change (gene MT1779 Rv1737c narK2): 0.01434
- log2 Fold change (gene MT1779 Rv1737c narK2): −6.124
- Counts per million (CPM) WT_HC103A (gene MT1779 Rv1737c narK2): 36.9 CPM and 14.55 CPM
- WT DMSO/WT HC103A fold change (gene MT1780 Rv1738): 0.01855
- log2 Fold change (gene MT1780 Rv1738): −5.752
- Counts per million (CPM) WT_HC103A (gene MT1780 Rv1738): 133.5 CPM and 33.12 CPM
- WT DMSO/WT HC103A fold change (gene MT1823 (Rv1773c)): 0.36
- log2 Fold change (gene MT1823 (Rv1773c)): −1.434
- Counts per million (CPM) WT_HC103A (gene MT1823 Rv1773c): 222.7 CPM and 163.7 CPM
- WT DMSO/WT HC103A fold change (gene MT1851 Rv1813c): 0.01771
- log2 Fold change (gene MT1851 Rv1813c): −5.819
- Counts per million (CPM) WT_HC103A (gene MT1851 Rv1813c): 58.53 CPM and 24.74 CPM
- WT DMSO/WT HC103A fold change (gene MT1860 Rv1812c): 0.3778
- log2 Fold change (gene MT1860 Rv1812c): −1.404
- Counts per million (CPM) WT_HC103A (gene MT1860 Rv1812c): 78.19 CPM and 78.7 CPM
- WT DMSO/WT HC103A fold change (gene MT1882 (Rv1834)): 0.3504
- log2 Fold change (gene MT1882 (Rv1834)): −1.472
- Counts per million (CPM) WT_HC103A (gene MT1882 Rv1834): 28.36 CPM and 29.22 CPM
- WT DMSO/WT HC103A fold change (gene MT1986 (Rv1936)): 0.2546
- log2 Fold change (gene MT1986 (Rv1936)): −1.918
- Counts per million (CPM) WT_HC103A (gene MT1986 Rv1936): 72.29 CPM and 31.56 CPM
- WT DMSO/WT HC103A fold change (gene MT1987 (Rv1937)): 0.2435
- log2 Fold change (gene MT1987 (Rv1937)): −2.038
- Counts per million (CPM) WT_HC103A (gene MT1987 Rv1937): 83.71 CPM and 36.75 CPM
- WT DMSO/WT HC103A fold change (gene MT1988 Rv1938 ephB): 0.2508
- log2 Fold change (gene MT1988 Rv1938 ephB): −1.995
- Counts per million (CPM) WT_HC103A (gene MT1988 Rv1938 ephB): 32.14 CPM and 15.97 CPM
- WT DMSO/WT HC103A fold change (gene MT1989 (Rv1939)): 0.2883
- log2 Fold change (gene MT1989 (Rv1939)): −1.794
- Counts per million (CPM) WT_HC103A (gene MT1989 Rv1939): 16.33 CPM and 8.831 CPM
- WT DMSO/WT HC103A fold change (gene MT2016 (Rv1964)): 0.2736
- log2 Fold change (gene MT2016 (Rv1964)): −1.87
- Counts per million (CPM) WT_HC103A (gene MT2016 Rv1964): 93.32 CPM and 56.95 CPM
- WT DMSO/WT HC103A fold change (gene MT2017): 0.1841
- log2 Fold change (gene MT2017): −2.441
- Counts per million (CPM) WT_HC103A (gene MT2017): 44.46 CPM and 29.87 CPM
- WT DMSO/WT HC103A fold change (gene MT2018 (Rv1966 mce3)): 0.194
- log2 Fold change (gene MT2018 (Rv1966 mce3)): −2.366
- Counts per million (CPM) WT_HC103A (gene MT2018 Rv1966 mce3): 54.83 CPM and 33.77 CPM
